This is an account of results in patent US9474790B2, “Stable, protracted GLP-1/glucagon receptor co-agonists for medical use” (Novo Nordisk A/S, priority 2013, dated 2016).

Each structure is given as a SMILES string. Numbered stars: 1 amine (or outer) side, 2 acyl side, 3 side chain; on linkers, the order of the positions; unused ones are H or OH. Square brackets hold non-standard residues; d marks the D form. Side chains are listed from the residue outwards. Peptide text beside a SMILES is read from it. * marks the point of attachment. C18 diacid = O=C(O)CCCCCCCCCCCCCCCCC(=O)*; γGlu = O=C(O)[C@H](CCC(=O)[*:2])N[*:1]; Ac4c = NC1(C(=O)O)CCC1; AEEA = NCCOCCOCC(=O)O; Aib = CC(C)(N)C(=O)O

Data set [1] is described as follows: Thioflavin T (ThT) fibrillation assay for physical stability. It counts as physicochemical. The note with it: 250 μM in 10 mM HEPES buffer, pH 7.5, 37° C., shaking 960 rpm. In short, it runs like this: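 Fibrillation was followed by ThT (1 μM) fluorescence every 20 min, 444/485 nm, for 250 μM peptide in 10 mM HEPES pH 7.5 shaken at 960 rpm, 37° C. Lag time (t0−2τ) and apparent rate constant (1/τ) come from a sigmoidal fit. Recovery is % of initial concentration remaining soluble after centrifugation and filtration (RP-HPLC).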

Data set [2] is described as follows: Chemical stability assessment by RP-UPLC. The format is physicochemical. The note with it: 333 μM, 8 mM phosphate buffer pH 7.3, 37° C. vs 5° C. The method, boiled down:
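Purity loss = (purity after 14 days at 5° C. minus that at 37° C.) relative to the 5° C. value, purity being main-peak area % by RP-UPLC with UV at 215 nm. Samples were 333 μM in 8 mM phosphate, pH 7.3; gradient adjusted for outlying retention times.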

With `CC(C)C[C@H](NC(=O)[C@H](Cc1ccc(O)cc1)NC(=O)[C@H](CCCCN)NC(=O)[C@H](CO)NC(=O)[C@H](CC(C)C)NC(=O)[C@H](CC(=O)O)NC(=O)[C@H](CO)NC(=O)[C@@H](NC(=O)[C@H](Cc1ccccc1)NC(=O)[C@@H](NC(=O)CNC(=O)[C@H](CCC(N)=O)NC(=O)C1(NC(=O)[C@@H](N)Cc2c[nH]cn2)CCC1)[C@@H](C)O)[C@@H](C)O)C(=O)N[C@@H](CCC(=O)O)C(=O)N[C@@H](CO)C(=O)N[C@@H](CCCNC(=N)N)C(=O)N[C@@H](CCCNC(=N)N)C(=O)N[C@@H](C)C(=O)N[C@@H](CCC(N)=O)C(=O)N[C@@H](CC(=O)O)C(=O)N[C@@H](Cc1ccccc1)C(=O)N[C@H](C(=O)N[C@@H](CCC(N)=O)C(=O)N[C@@H](Cc1c[nH]c2ccccc12)C(=O)N[C@@H](CC(C)C)C(=O)N[C@@H](CC(C)C)C(=O)N[C@@H](CCCCNC(=O)COCCOCCNC(=O)COCCOCCNC(=O)CC[C@H](NC(=O)CC[C@H](NC(=O)CC[C@H](NC(=O)CCCCCCCCCCCCCCCCC(=O)O)C(=O)O)C(=O)O)C(=O)O)C(=O)N[C@H](C(N)=O)[C@@H](C)O)C(C)C` [Example 63, N^ε28-[2-[2-[2-[[2-[2-[2-[[(4S)-4-carboxy-4-[[(4S)-4-carboxy-4-[[(4S)-4-carboxy-4-(17-carboxyheptadecanoylamino)butanoyl]amino]butanoyl]amino]butanoyl]amino]ethoxy]ethoxy]acetyl]amino]ethoxy]ethoxy]acetyl]-[Acb2,Leu10,Glu15,Leu27,Lys28]-Glucagon amide] (H-H[Ac4c]QGTFTSDLSKYLESRRAQDFVQWLLK([AEEA-AEEA-γGlu-γGlu-γGlu-C18 diacid])T-NH2; N-terminus assumed), in data set [1], the THT assay Lag time (Ex. 76) turned out to be 45 h. Also, in data set [2], the “Purity loss; 14 days at 37° C.” value worked out at 1%.
In the same order, the values of `CC(C)C[C@H](NC(=O)[C@H](Cc1ccc(O)cc1)NC(=O)[C@H](CCCCN)NC(=O)[C@H](CO)NC(=O)[C@H](CC(C)C)NC(=O)[C@H](CC(=O)O)NC(=O)[C@H](CO)NC(=O)[C@@H](NC(=O)[C@H](Cc1ccccc1)NC(=O)[C@@H](NC(=O)CNC(=O)[C@H](CCC(N)=O)NC(=O)C(C)(C)NC(=O)[C@@H](N)Cc1c[nH]cn1)[C@@H](C)O)[C@@H](C)O)C(=O)N[C@@H](CC(=O)O)C(=O)N[C@@H](C)C(=O)N[C@@H](CCCNC(=N)N)C(=O)N[C@@H](CCCNC(=N)N)C(=O)N[C@@H](C)C(=O)N[C@@H](CCCNC(=N)N)C(=O)N[C@@H](CC(=O)O)C(=O)N[C@@H](Cc1ccccc1)C(=O)N[C@H](C(=O)N[C@@H](CCC(N)=O)C(=O)N[C@@H](Cc1c[nH]c2ccccc12)C(=O)N[C@@H](CC(C)C)C(=O)N[C@@H](CC(C)C)C(=O)N[C@@H](CC(N)=O)C(=O)N[C@@H](CCCCNC(=O)CC[C@H](NC(=O)CC[C@H](NC(=O)COCCOCCNC(=O)COCCOCCNC(=O)CC[C@H](NC(=O)CCCCCCCCCCCCCCCCC(=O)O)C(=O)O)C(=O)O)C(=O)O)C(N)=O)C(C)C` [Example 65] (H-H[Aib]QGTFTSDLSKYLDARRARDFVQWLLNK([γGlu-γGlu-AEEA-AEEA-γGlu-C18 diacid])-NH2; N-terminus assumed) are 45 h and 3%.
